Test results taken from patent US3974281A, “5-Methyl-1-phenyl-2-(1H)-pyridone compositions and methods of use” (priority 1974, dated 1976).
Entries after “also recorded” stand apart in the source; their conditions may differ.

Legend:
[1] = test system: rats with the hind limb inflammed; experiment: Analgesic activity, rats with inflamed hind limb (absence of squeal on flexion of inflamed ankle joint); format: in vivo, rat; conditions: oral
Procedure: the end-point for analgesic testing in rats with the hind limb inflammed is based on the absence of a squeal in response to flexion of the inflammed ankle joint (Method described by S. Margolin, Proceedings of an International Symposium on Non-Steroidal Anti-Inflammatory Drugs, Excerpta Medica International Congress, Series No. 82, 1964).
With AMR-93, the median effective dose was 325 ± 45 mg./kg.

[2] = test system: edema (swelling), experimental inflammation in the hind limb of rats; experiment: Anti-inflammatory activity, reduction of edema of experimentally inflamed hind limb; format: in vivo, albino rats; conditions: oral
Procedure: anti-inflammatory activity was assayed by the method described by Margolin (ibid.) utilizing albino rats. The anti-inflammatory bio-assay basis is the ability to reduce the edema (swelling) when an experimental inflammation is induced in the hind limb of the rats.

[3] = test system: dog lung tissues; experiment: Protection of mucous membranes against noxious agents, microscopic examination of dog lung tissues; format: in vivo
[4] = test system: mucous linings of the respiratory system; experiment: Clinical trials on humans with sinusitis, post-nasal drip, rhinitis, conjunctivitis, headache, earache, sore throat; format: in vivo, human; conditions: oral capsule, approximately 400 mg. per capsule
[5] = test system: skin conditions; experiment: Effect on skin conditions (dermatitis, itching, insect sting, poison ivy) in humans; format: in vivo, human
[6] = test system: serum uric acid; experiment: Reduction in serum uric acid levels, rats; format: in vivo, albino male and female rats
Procedure: normal adult albino male and female rats were given repeated graded doses of AMR-69 and the effect upon serum uric acid levels was determined. There were 10 males and 10 females in each group. The control group received the placebo and the drug was administered orally by admixture to the food. The serum uric acid determination was one of a series performed utilizing the Autotechnicon technique (Lofland et al., 1965 Technicon Symposium) using the Standard SMA-12 procedure (based upon procedure of Bittner et al., AM. J. Clin. Path. 40:423, 1963).
The lowering in serum uric acid levels shown by AMR-69 in tests on rats and on dogs has been noted.

[7] = test system: serum uric acid; experiment: Reduction in serum uric acid levels, dogs; format: in vivo, Beagle type dogs
Procedure: adult male and female Beagle type dogs from a closed colony weighing approximately 10 to 15 kilograms were utilized in the study. There were seven to nine dogs per group. AMR-69 was given orally in capsules to two groups and the third group received placebo capsules. […] The method for determining serum uric acid was performed using the Autotechnicon and the SMR-12 series of analyses. The specific method was based upon the procedure of Lofland et al. The mean serum uric acid values obtained with repeated doses of AMR-69 were as follows: […]

[8] = test system: glucose level in the serum; experiment: Reduction in serum glucose levels, nine week diet test in rats; format: in vivo, weanling rats of the Carworth Farms CFE Strain
[9] = Acute toxicity in mice; format: in vivo; conditions: mouse, in vivo, ip; fasted albino mice, intraperitoneal; read-out: Intraperitoneally LD50
Procedure: (§1) in fasted albino mice (Flanders) the LD50 for AMR-69 and aminopyrine was determined by standard procedures with the following results: […]

[10] = test system: fasted albino mice (Flanders); experiment: Acute toxicity in mice; format: in vivo; conditions: oral and intraperitoneal
Procedure: as §1

[11] = test system: rabbit eye (conjunctival sac); parameters: species or system albino rabbits of the New Zealand strain; conditions: in vivo
Procedure: six male albino rabbits of the New Zealand strain were incorporated in this study. A dosage of 0.1 ml. of AMR-69-62 (2% Aqueous Solution) was introduced into the conjunctival sac of the left eye of each rabbit; the right eye served as an untreated control. The six treated rabbit eyes were scored against the corresponding untreated control eyes according to the method of Draize (Draize, J.H., in Appraisal of the Safety of Chemicals in Foods, Drugs and Cosmetics, Assoc. of Food and Drug Officials of U.S., Austin, Tex., 1959) at 0.5 minutes, 30 minutes and 3.0 hours after administration of AMR-69.

[12] = test system: rabbit leg muscle; experiment: Local toxicity of intramuscular injection into rabbit leg muscle; format: in vivo, New Zealand white rabbits
Procedure: six healthy adult New Zealand white rabbits from a stock colony were injected into the large muscle mass of the leg with a 2.0 milliliter volume of 2.0% aqueous solution of AMR-69. The response was compared to the intramuscular injection of 2.0 ml. of an isotonic solution of sodium chloride. The animals were carefully observed for any evidence of discomfort for a period of three hours. […] Three hours after the injection, the animals were sacrificed and a careful dissection was made around the injection site of the: (1) skin, (2) subcutaneous fascia, and (3) muscle tissue for a gross examination under a low powder binocular mircroscope for any tissue reaction. […] Similarly, no tissue reaction was found following the intramuscular injection of the isotonic saline. One change noted in two rabbits reflected a hemorrhage from a vein which was cut as the hypodermic needle passed into the tissue. After the gross examination, the muscle masses were dissected out, removed and preserved in buffered formalin for histological examination.

[13] = test system: blood; experiment: Blood studies after administration for efficacy, and acute and chronic toxicity; format: in vivo; conditions: therapeutic or sublethal amounts; rats, mice, rabbits and dogs
[14] = test system: mucous membranes of the nasopharynx and lungs; experiment: Protection of mucous membranes of the nasopharynx and lungs, comparison with related pyridones; format: in vivo; conditions: comparison with related pyridones
[15] = Tolerability on administration over extended periods; format: in vivo
From the text: It may be administered orally, topically, parenterally, intradermally, by inhalation spray in formulations containing conventional non-toxic pharmaceutically acceptable carriers, adjuvants and vehicles. The term parenteral as used herein includes subcutaneous injections, intravenous, intromuscular, intracisternal or intrathecal injection or infusion techniques.

[16] = Absorption into the blood stream; conditions: in vivo

## Cc1ccc(=O)n(-c2ccccc2)c1 [AMR-69, 5-methyl-1-phenyl-2-(1H)-pyridone]
[1]; Rattus norvegicus, read-out: oral ED50 (median analgesic dose)
  ED50: 145 ± 26 mg/kg
[1]
  analgesic effectiveness by the oral route as compared to aminopyrine: as effective as aminopyrine
  onset of analgesic effect as compared to aminopyrine: more rapid onset of analgesic effect
[2]; Rattus norvegicus, read-out: oral median effective dose (ED50), anti-inflammatory
  ED50: 200 ± 46 mg/kg
[2]; vs aminopyrine
  onset of the anti-inflammatory therapeutic effect: more rapid onset of the therapeutic effect
[3]
  protection against noxious focal respiratory tract pathology (petechiae, edema, hemorrhage, focal infection): affording protection against noxious focal respiratory tract pathology
[4]
  noxious effect of acute and chronic infections of the nasopharynx, cranial sinuses: arrested and relieved
[5]; oral capsule (procedure of preceding section)
  relief from the symptom, skin conditions: Relief from the symptom was rapid in each instance
[5]; powder applied directly to the affected skin areas
  relief from itching, contact dermatitis (poison ivy): substantially immediate relief from the characteristic itching
[5]; powder applied topically, poison ivy
  time to cessation of weeping of the affected areas: thirty
[6]; microscopic examination of focal tissues of sacrificed animals
  crystal deposition of uric acid or its salts (joints, liver, muscles, kidneys): no evidence of crystal deposition
[6]; rats, 30 and 100 mg./kg.
  reduction in serum uric acid, significance: statistically significant
[6]; rats, repeated oral 30 mg./kg. in food, placebo 1.53 ± 0.20 mg.%, T = 1.92 (P = 0.06)
  serum uric acid, 30 mg./kg.: 1.05 ± 0.15 mg.%
[6]; rats, repeated oral 100 mg./kg. in food, placebo 1.53 ± 0.20 mg.%, T = 3.25 (P< 0.01)
  serum uric acid, 100 mg./kg.: .78 ± 0.11 mg %
[7]; oral capsules (P 0.05)
  reduction in serum uric acid values versus control: significantly different from the control
[7]; repeated oral capsules 25 mg/kg, placebo 0.78 ± 0.046 mg.%, T = 2.84 (P<0.02)
  mean serum uric acid, 25 mg/kg: 0.59 ± 0.051 mg.%
[7]; repeated oral capsules 75 mg/kg, placebo 0.78 ± 0.046 mg.%, T = 2.40 (P<0.05)
  mean serum uric acid, 75 mg/kg: 0.60 ± 0.049 mg.%
[8]; female rats, 600 mg./kg./day in diet, control 173.0 mg.%
  mean glucose, female, 600 mg./kg./day: 144.8 mg.%
[8]; female rats, 900 mg./kg./day in diet, control 173.0 mg.%
  mean glucose, female, 900 mg./kg./day: 136 mg/dL
[8]; male rats, 600 mg./kg./day in diet, nine weeks, control 155.8 mg.%
  mean glucose in the serum, male, 600 mg./kg./day: 131.8 mg.%
[8]; male rats, 900 mg./kg./day in diet, nine weeks, control 155.8 mg.%
  mean glucose in the serum, male, 900 mg./kg./day: 132.6 mg.%
[9]
  LD50: 420 ± 9 mg/kg
[10]
  lethal dosage level / toxicity as compared to aminopyrine: markedly lower toxicity; also recorded: significant higher lethal dosage level as compared to aminopyrine
[11]
  Draize evaluation of eye irritation: would not be considered as an irritant to the eye
  group mean Draize score at 0.5 minutes: 2.0
  group mean Draize score at 30 minutes: 0.0
  group mean Draize score at 3.0 hours: 0.0
[12]; 2.0 ml of 2.0% aqueous solution i.m.
  microscopic examination of injection sites versus isotonic saline: no difference between those of the isotonic saline and the parenteral AMR-69
[12]; 2.0 ml of 2.0% aqueous solution i.m., stained tissue sections
  histological examination of excised muscle: absence of any edema, erythema, chemosis, or necrosis
[12]; 2.0 ml of 2.0% aqueous solution i.m., three hours
  tissue reaction at injection site, gross examination (skin, subcutaneous fascia, muscle): No evidence of tissue reaction was observed
[12]; 2.0 ml of 2.0% aqueous solution, three hours
  discomfort after intramuscular injection: No discomfort was evident
[13]
  blood dyscrasias: no indication of blood dyscrasias
[14]
  protection of mucous membranes of the nasopharynx and lungs: effective
[15]; effective dosage levels
  irritation of body tissues at effective dosage levels: relatively non-irritating to the various body tissues
[15]; extended periods
  side reactions on administration over extended periods: no untoward side reactions
[16]
  absorption in the blood stream: very rapidly absorbed in the blood stream
